Values belong to the compound of their own block, whether it stands above or below them.
Tests used:
[1] = molecular target: MDM2; settings: read-out: binding affinity towards MDM2 (Kd); ref 22 (Thean et al.); cited from earlier work
[2] = Tumor uptake and tissue distribution in mice bearing SJSA-1 xenografts; assay type: in vivo, athymic mice; settings: athymic, mouse, iv, 166.5 kBq, total radioactivity
[3] = In vivo metabolic stability; settings: athymic mice without tumors, i.v., plasma 4 h post-injection; RP-HPLC; n = 2/time point
[4] = Lipophilicity, shake-flask n-octanol/PBS; assay type: physicochemical; settings: n-octanol/phosphate-buffered saline, pH 7.4
[5] = tested on: SJSA-1 human osteosarcoma xenografts; assay: Tumor uptake and tissue distribution in mice bearing SJSA-1 xenografts; assay type: in vivo, athymic mice
[6] = tested on: SJSA-1 osteosarcoma cell line (MDM2-amplified, wild-type p53); assay type: cell-based, human; settings: SJSA-1 cells, 50 μM VIP116, 2 h incubation

SMILES: CC(=O)N[C@@H](CCCCN)C(=O)NCCCCCC(=O)N[C@H](C(=O)N[C@@H](CO)C(=O)N[C@@H](Cc1ccccc1)C(=O)N[C@]1(C)CCCCCCC=CCCC[C@@](C)(C(=O)N[C@@H](CCC(=O)O)C(=O)N[C@@H](CC(N)=O)C(=O)N[C@@H](Cc2ccccc2)C(N)=O)NC(=O)[C@H](CC(C)C)NC(=O)[C@H](CC(C)C)NC(=O)[C@H](C)NC(=O)[C@H](Cc2c[nH]c3ccccc23)NC(=O)[C@H](Cc2ccc(O)cc2)NC(=O)[C@H](CCC(=O)O)NC1=O)[C@@H](C)O [VIP116]
Kd [1]: 15.1 ± 1.7 nM

SMILES: CC(=O)N[C@@H](CCCCNC(=O)c1cccc(I)c1)C(=O)NCCCCCC(=O)N[C@H](C(=O)N[C@@H](CO)C(=O)N[C@@H](Cc1ccccc1)C(=O)N[C@]1(C)CCCCCCC=CCCC[C@@](C)(C(=O)N[C@@H](CCC(=O)O)C(=O)N[C@@H](CC(N)=O)C(=O)N[C@@H](Cc2ccccc2)C(N)=O)NC(=O)[C@H](CC(C)C)NC(=O)[C@H](CC(C)C)NC(=O)[C@H](C)NC(=O)[C@H](Cc2c[nH]c3ccccc23)NC(=O)[C@H](Cc2ccc(O)cc2)NC(=O)[C@H](CCC(=O)O)NC1=O)[C@@H](C)O [[*I]SIB-VIP116] [listing 2 of 2 here]
% of radioactivity in plasma as intact labeled peptide [3]: about 80%

SMILES: CC(=O)N[C@@H](CCCCNC(=O)c1cccc(I)c1)C(=O)NCCCCCC(=O)N[C@H](C(=O)N[C@@H](CO)C(=O)N[C@@H](Cc1ccccc1)C(=O)N[C@]1(C)CCCCCCC=CCCC[C@@](C)(C(=O)N[C@@H](CCC(=O)O)C(=O)N[C@@H](CC(N)=O)C(=O)N[C@@H](Cc2ccccc2)C(N)=O)NC(=O)[C@H](CC(C)C)NC(=O)[C@H](CC(C)C)NC(=O)[C@H](C)NC(=O)[C@H](Cc2c[nH]c3ccccc23)NC(=O)[C@H](Cc2ccc(O)cc2)NC(=O)[C@H](CCC(=O)O)NC1=O)[C@@H](C)O [[^125I]SIB-VIP116] [listing 2 of 2 here]
Blood radioactivity ([5]; 30 min after i.v. injection, n = 5): 8.33 ± 1.18 %ID/g
radioactivity found in the urine ([5]; 2 h after i.v. injection (data not shown)): ≤ 0.93 % ID
Tumor uptake (SJSA-1 xenograft) ([5]; 2 h after i.v. injection, n = 5): 2.19 ± 0.56 %ID/g
blocking of cell uptake [6]: > 85%

Results, then the compound that gave them:

tissue uptake at 0.5 h ([2]; blood): 8.33 ± 1.18 %ID/g
tissue uptake at 2 h ([2]; tumor): 2.19 ± 0.56 %ID/g
SMILES: CC(=O)N[C@@H](CCCCNC(=O)c1cccc(I)c1)C(=O)NCCCCCC(=O)N[C@H](C(=O)N[C@@H](CO)C(=O)N[C@@H](Cc1ccccc1)C(=O)N[C@]1(C)CCCCCCC=CCCC[C@@](C)(C(=O)N[C@@H](CCC(=O)O)C(=O)N[C@@H](CC(N)=O)C(=O)N[C@@H](Cc2ccccc2)C(N)=O)NC(=O)[C@H](CC(C)C)NC(=O)[C@H](CC(C)C)NC(=O)[C@H](C)NC(=O)[C@H](Cc2c[nH]c3ccccc23)NC(=O)[C@H](Cc2ccc(O)cc2)NC(=O)[C@H](CCC(=O)O)NC1=O)[C@@H](C)O [[*I]SIB-VIP116] [listing 1 of 2 here]

logD [4]: 1.45 ± 0.05
tissue uptake at 0.5 h ([2]; bladder): 0.61 ± 0.21 %ID/g
tissue uptake at 2 h ([2]; bladder): 0.58 ± 0.34 %ID/g
tissue uptake at 6 h ([2]; bladder): 0.95 ± 0.78 %ID/g
tissue uptake at 24 h ([2]; bladder): 0.29 ± 0.09 %ID/g
tissue uptake at 2 h ([2]; blood): 6.84 ± 1.92 %ID/g
tissue uptake at 6 h ([2]; blood): 5.12 ± 0.9 %ID/g
tissue uptake at 24 h ([2]; blood): 0.62 ± 0.2 %ID/g
tissue uptake at 0.5 h ([2]; bone): 0.38 ± 0.19 %ID/g
tissue uptake at 2 h ([2]; bone): 0.33 ± 0.23 %ID/g
tissue uptake at 6 h ([2]; bone): 0.29 ± 0.2 %ID/g
tissue uptake at 24 h ([2]; bone): 0.16 ± 0.04 %ID/g
tissue uptake at 0.5 h ([2]; brain): 0.24 ± 0.13 %ID/g
tissue uptake at 2 h ([2]; brain): 0.25 ± 0.08 %ID/g
tissue uptake at 6 h ([2]; brain): 0.2 ± 0.06 %ID/g
tissue uptake at 24 h ([2]; brain): 0.02 ± 0.01 %ID/g
tissue uptake at 0.5 h ([2]; heart): 2.52 ± 0.49 %ID/g
tissue uptake at 2 h ([2]; heart): 2.44 ± 0.49 %ID/g
tissue uptake at 6 h ([2]; heart): 2.14 ± 0.38 %ID/g
tissue uptake at 24 h ([2]; heart): 0.37 ± 0.08 %ID/g
tissue uptake at 0.5 h ([2]; kidneys): 3.06 ± 1.82 %ID/g
tissue uptake at 2 h ([2]; kidneys): 2.54 ± 0.5 %ID/g
tissue uptake at 6 h ([2]; kidneys): 2.5 ± 0.48 %ID/g
tissue uptake at 24 h ([2]; kidneys): 0.63 ± 0.12 %ID/g
tissue uptake at 0.5 h ([2]; large intestine): 0.06 ± 0.06 %ID/g
tissue uptake at 2 h ([2]; large intestine): 0.24 ± 0.2 %ID/g
tissue uptake at 6 h ([2]; large intestine): 4.44 ± 1.9 %ID/g
tissue uptake at 24 h ([2]; large intestine): 1.87 ± 1.29 %ID/g
tissue uptake at 0.5 h ([2]; liver): 13.5 ± 6.18 %ID/g
tissue uptake at 2 h ([2]; liver): 18.4 ± 1.45 %ID/g
tissue uptake at 6 h ([2]; liver): 11.4 ± 4.46 %ID/g
tissue uptake at 24 h ([2]; liver): 4.72 ± 2.84 %ID/g
tissue uptake at 0.5 h ([2]; lungs): 4.27 ± 1.06 %ID/g
tissue uptake at 2 h ([2]; lungs): 2.72 ± 1.16 %ID/g
tissue uptake at 6 h ([2]; lungs): 2.49 ± 1.17 %ID/g
tissue uptake at 24 h ([2]; lungs): 0.33 ± 0.19 %ID/g
tissue uptake at 0.5 h ([2]; muscle): 0.16 ± 0.06 %ID/g
tissue uptake at 2 h ([2]; muscle): 0.24 ± 0.07 %ID/g
tissue uptake at 6 h ([2]; muscle): 0.25 ± 0.11 %ID/g
tissue uptake at 24 h ([2]; muscle): 0.16 ± 0.09 %ID/g
tissue uptake at 0.5 h ([2]; skin): 0.57 ± 0.17 %ID/g
tissue uptake at 2 h ([2]; skin): 0.88 ± 0.18 %ID/g
tissue uptake at 6 h ([2]; skin): 1.22 ± 0.47 %ID/g
tissue uptake at 24 h ([2]; skin): 0.52 ± 0.13 %ID/g
tissue uptake at 0.5 h ([2]; small intestine): 0.43 ± 0.09 %ID/g
tissue uptake at 2 h ([2]; small intestine): 2.17 ± 0.99 %ID/g
tissue uptake at 6 h ([2]; small intestine): 3.84 ± 1.29 %ID/g
tissue uptake at 24 h ([2]; small intestine): 0.86 ± 0.35 %ID/g
tissue uptake at 0.5 h ([2]; spleen): 1.29 ± 0.61 %ID/g
tissue uptake at 2 h ([2]; spleen): 1.8 ± 0.65 %ID/g
tissue uptake at 6 h ([2]; spleen): 1.99 ± 0.44 %ID/g
tissue uptake at 24 h ([2]; spleen): 0.58 ± 0.24 %ID/g
tissue uptake at 0.5 h ([2]; stomach): 0.34 ± 0.09 %ID/g
tissue uptake at 2 h ([2]; stomach): 0.53 ± 0.17 %ID/g
tissue uptake at 6 h ([2]; stomach): 1.9 ± 1.15 %ID/g
tissue uptake at 24 h ([2]; stomach): 0.84 ± 0.43 %ID/g
tissue uptake at 0.5 h ([2]; thyroid): 0.89 ± 0.17 %ID/g
tissue uptake at 2 h ([2]; thyroid): 1.14 ± 0.43 %ID/g
tissue uptake at 6 h ([2]; thyroid): 1.19 ± 0.36 %ID/g
tissue uptake at 24 h ([2]; thyroid): 0.27 ± 0.14 %ID/g
tissue uptake at 0.5 h ([2]; tumor): 1.8 ± 0.75 %ID/g
tissue uptake at 6 h ([2]; tumor): 2.11 ± 0.29 %ID/g
tissue uptake at 24 h ([2]; tumor): 0.36 ± 0.12 %ID/g
SMILES: CC(=O)N[C@@H](CCCCNC(=O)c1cccc(I)c1)C(=O)NCCCCCC(=O)N[C@H](C(=O)N[C@@H](CO)C(=O)N[C@@H](Cc1ccccc1)C(=O)N[C@]1(C)CCCCCCC=CCCC[C@@](C)(C(=O)N[C@@H](CCC(=O)O)C(=O)N[C@@H](CC(N)=O)C(=O)N[C@@H](Cc2ccccc2)C(N)=O)NC(=O)[C@H](CC(C)C)NC(=O)[C@H](CC(C)C)NC(=O)[C@H](C)NC(=O)[C@H](Cc2c[nH]c3ccccc23)NC(=O)[C@H](Cc2ccc(O)cc2)NC(=O)[C@H](CCC(=O)O)NC1=O)[C@@H](C)O [[^125I]SIB-VIP116] [listing 1 of 2 here]
